# Entries after “also recorded” stand apart in the source; their conditions may differ.
# Assays:
# rabbit nasal cavity = experiment: Acute toxicological study, rabbit nasal cavity 10 minutes after intranasal application; format: in vivo; conditions: for Microscopic Observations (Left Cavity): Table 8, individual rabbit
# Experimental: This study was conducted in order to observe acute changes in the rabbit nasal cavity after a single dose of vehicle in each nasal cavity.
# 16 rabbits were randomized into 4 groups of 4 rabbits each. 3 groups received a single intranasal application of one of the test vehicles, 50 μl into each nasal cavity. Each rabbit received only one test compound. One group served as a control receiving the same volume of isotonic sodium chloride saline. 10 minutes after application the rabbits were sacrificed and bled. The right nasal cavity was then opened and evaluated macroscopically. The evaluator was blind as to the dosing scheme. The left nasal cavity was dissected and fixed in neutral buffered formalin for histological evaluation.
# [1] = intranasal, adults; cited from earlier work
# [2] = Plasma clonazepam after intranasal administration in vehicle B (Example 2); format: in vivo, New Zealand White rabbits
# Experimental: 50 μl of his preparation was administered into each nasal cavity of male New Zealand White rabbits, held in a supine position during and 1 minute after the application. An Eppendorph pipette was used for the application.
# rabbits = experiment: Pharmacodynamic response, enhanced by GF (Example 3); conditions: intranasal 0.25 mg clonazepam in 100 μl
# Experimental: The pharmacodynamic response was tested in New Zealand White rabbits after application of 50 μl of 2.5 mg clonazepam/ml vehicle into each nostril while they were in sitting position. […] Clonazepam was dissolved by ultrasonification.
# [3] = Volume of aqueous solution needed to dissolve clinically relevant dose; format: physicochemical
# blood glucose level [4] = experiment: Blood glucose after intranasal insulin (Example 4); format: in vivo, New Zealand White rabbits; conditions: rabbits
# Experimental: 0.33 mg zinc-free (monomeric) human insulin in 50 μl 12.5 mM phosphate buffer (pH 7.4) containing 5% glycofurol 75 was applied into one nostril of 5 sitting New Zealand White rabbits, weighing about 3 kg. Blood samples of 50 μl were withdrawn from the marginal ear vein after 0, 15, 30, 60 and 120 minutes, and blood glucose level was determined.
# blood glucose level [5] = experiment: Blood glucose after intranasal glucagon in hypoglycaemic rabbits (Example 5); format: in vivo, New Zealand White rabbits
# Experimental: 4 mg human glucagon in 100 μl phosphate buffer (pH 4) containing 5% GF was applied into both nostrils (50 μl into each) of 5 sitting hypoglycaemic New Zealand White rabbits, weighing about 3 kg. The formulation was prepared by dissolving glucagon in a 7 mM phosphate buffer (pH 2.5), adjusting the pH to 4.0 with 0.1N sodium hydroxide and finally 5% glycofurolum 75 was added. The rabbits were made hypoglycaemic by subcutaneous injection of […] insulin one hour prior to the experiment. Blood samples were continuously withdrawn from the marginal ear vein for blood glucose determination.
# children = conditions: intranasal, 45 children; cited from earlier work
# [6] = nasal gel, rats; cited from earlier work
compound,measurement,setting,value
"CC(O)CO (stereo not shown) [Propylene glycol (PG), propylene glycol]",Microscopic Observations (Left Cavity),rabbit nasal cavity; Level 1,Edema and congestion
same,Microscopic Observations (Left Cavity),rabbit nasal cavity; Level 2,Congestion
same,Microscopic Observations (Left Cavity),rabbit nasal cavity; Level 3,Lymphoid aggregates; also recorded: Dilatation of venules
same,Microscopic Observations (Left Cavity),rabbit nasal cavity; Level 4,Area of chronic inflammation
same,Microscopic Results (Left side),"rabbit nasal cavity; Table 9 summary, 10 minutes after application, per animal",Focal haemorrhage
CN1C(=O)CN=C(c2ccccc2)c2cc(Cl)ccc21 [diazepam],peak concentration with reference to i.v. administration,[1],about 27%
O=C1CN=C(c2ccccc2Cl)c2cc([N+](=O)[O-])ccc2N1 [clonazepam],plasma concentration versus i.v. injection (in words),"[2]; 0.5 mg, at about 2 minutes","about the same or even higher, at about 2 minutes, than for an i.v. injection"
same,"plasma concentration after 2 1/2 minutes, % of i.v. (CpL(21/2 min))",[2]; FIG. 1,about 100%
same,Tmax,"[2]; rabbit, plasma, 0.5 mg, FIG. 1, read-out: peak clonazepam plasma concentration (tmax)",2 to 3 min
same,time to pharmacodynamic response,rabbits,less than 2 minutes
same,volume of aqueous solution to dissolve clinically relevant dose,[3],> 10 mL
insulin: zinc-free (monomeric) human insulin in phosphate buffer (pH 7.4) containing 5% glycofurol 75,"pronounced biological response (blood glucose), time after application",blood glucose level [4],15-30 minutes
O=C1Nc2ccc(Cl)cc2C(c2ccccc2Cl)=NC1O (stereo not shown) [lorazepam],time to peak concentration,[1],2.3 h
glucagon: human glucagon in phosphate buffer (pH 4) containing 5% GF,"pronounced biological response (blood glucose), time after application",blood glucose level [5],15-30 minutes
Cc1ncc2n1-c1ccc(Cl)cc1C(c1ccccc1F)=NC2 [midazolam],adverse reaction (in words),children,coughing and sneezing with expulsion of part of the dose
COC(=O)C1=C(C)NC(C)=C(C(=O)OC)C1c1ccccc1[N+](=O)[O-] [nifedipine],plasma peak concentration compared with intravenous administration,[6],≤ 10%

# — patent US5693608A, “Method of administering a biologically active substance” (Bechgaard International Research and Development A/S, priority 1990, dated 1997)
